The text below walks through data of article PMC7982406, “Proteinase-Mediated Macrophage Signaling in Psoriatic Arthritis” (Frontiers in Immunology, 2021).

For experiment [1], the target named is proteinase-activated receptor 2 (human (endogenous in HEK-293, THP-1 and primary monocytes/macrophages)) (UniProt P55085).
Experiment [2] deals with T1, PAR2 (proteinase-activated receptor 2) (Homo sapiens, UniProt P55085).
T1 construct: gene F2RL1; endogenous full-length receptor in HEK-293 cells; no response to 2fLI in CRISPR PAR2-knockout HEK-293
T1 sequence (P55085 26-397): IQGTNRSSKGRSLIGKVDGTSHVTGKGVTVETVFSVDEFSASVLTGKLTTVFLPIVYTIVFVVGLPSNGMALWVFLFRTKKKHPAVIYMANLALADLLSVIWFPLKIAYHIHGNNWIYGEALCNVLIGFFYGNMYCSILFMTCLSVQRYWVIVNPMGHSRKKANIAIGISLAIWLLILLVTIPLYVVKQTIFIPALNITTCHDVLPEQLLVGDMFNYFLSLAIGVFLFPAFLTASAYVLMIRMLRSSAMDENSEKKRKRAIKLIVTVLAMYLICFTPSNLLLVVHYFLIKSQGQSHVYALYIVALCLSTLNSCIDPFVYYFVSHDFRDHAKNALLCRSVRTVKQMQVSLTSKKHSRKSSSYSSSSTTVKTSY
Description: calcium signaling (Fluo-4 AM), HEK-293 cells. The format is cell-based. Particulars: antagonist; pre-treatment, then 0.15 µM 2fLI as agonist; 37 °C.

For the next experiment, the target named is T2, Tryptase-6 (PRSS33) (Homo sapiens, UniProt Q8NF86).
T2 construct: native active enzyme (~25 kDa) captured by anti-tryptase-6 antibody from patient synovial fluid
T2 sequence (Q8NF86 37-280): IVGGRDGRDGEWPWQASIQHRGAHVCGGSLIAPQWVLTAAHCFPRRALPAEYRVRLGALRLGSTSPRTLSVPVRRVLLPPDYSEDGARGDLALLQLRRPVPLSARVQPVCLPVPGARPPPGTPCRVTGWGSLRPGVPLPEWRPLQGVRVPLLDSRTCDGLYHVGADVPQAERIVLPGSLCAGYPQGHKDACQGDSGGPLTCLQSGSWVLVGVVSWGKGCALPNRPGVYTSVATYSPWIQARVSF
In words: fluorogenic cleavage, antibody pull-down from synovial fluid. In kind it is biochemical. To be noted: 37 °C; ex 380 nm, em 460 nm; enzyme captured by plate-immobilized antibody.

Where a SMILES comes first, the peptide text is derived from it. [ ]: non-standard residue; d: D form. The star is where a group is joined. AMC = Cc1cc(=O)oc2cc(N*)ccc12

With 2-furoyl-LIGRLO-NH2 (peptide), the calcium signaling (Fluo-4 AM) in HEK-293 cells, concentration-effect curve of 2fLI, EC50 in experiment [1] stood at 140 nM.

With `CC(C)(C)c1cc(-c2ccc(F)cc2)nn2cc(C(=O)N3CCNC(=O)C3(C)C)nc12` [I-191], in experiment [2], the half-maximal inhibitory concentration (IC50) was determined as 2.1 nM. As for `Cc1cc(=O)oc2cc(NC(=O)[C@H](CCCCN)NC(=O)[C@H](CC(C)C)NC(=O)[C@H](N)C(C)C)ccc12` [VLK-AMC] (H-[dV]-Leu-Lys-{AMC}), on Tryptase-6 (PRSS33), the “fluorogenic cleavage, antibody pull-down from synovial fluid” value was “Tryptase-6 activity increased when both substrates were added”.

A word on the IC50: it is the concentration needed to halve the response being measured.
